# Assay results taken from US11702422B2, “Imidazopyridazines as modulators of IL-17” (Janssen Pharmaceutica NV, priority 2020, dated 2023).
# How the values were obtained:
# [1] = molecular target: IL-17A(FLAG-Tagged): IL-17RA(His-Tagged) (Homo sapiens, UniProt Q16552, K93Q); experiment: IL-17A(FLAG-Tagged): IL-17RA(His-Tagged) Binding Disruption Eu-HTRF Assay; conditions: IL-17A/IL-17RA binding disruption, simple average if tested more than once
# Procedure, shortened: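 IC50 comes from a one-site competition fit of the HTRF 665/620 nm ratio. Compound dilutions (2-fold, 22 points) were held 1 h rt with FLAG-tagged IL-17A dimer, then His-tagged IL-17RA plus Eu-cryptate anti-FLAG and D2 anti-His antibodies were added for 2 h rt.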
# [2] = test system: IL-17A-induced G-CSF production in human normal keratinocyte (NHK); experiment: NHK Assay: IL-17A-induced G-CSF production in human normal keratinocytes; type: cell-based; conditions: Homo sapiens, Keratinocyte, 24 h, adult normal human keratinocytes, IL-17A 5 ng/mL, simple average if tested more than once
# Procedure, shortened: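 Adult NHK, 3000-4000 cells/well; rhIL-17A + titrated cpd preincubated 1 h rt, then onto cells. Final: IL-17A 5 ng/mL, DMSO 0.2%, 5% FBS. 24 h, 37° C. G-CSF in supernatant by HTRF vs standard curve; IC50. Viability by CellTiter-Glo vs DMSO.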
# Sequence of UniProt Q16552 (Q16552 with tags, fused parts or gaps K93Q): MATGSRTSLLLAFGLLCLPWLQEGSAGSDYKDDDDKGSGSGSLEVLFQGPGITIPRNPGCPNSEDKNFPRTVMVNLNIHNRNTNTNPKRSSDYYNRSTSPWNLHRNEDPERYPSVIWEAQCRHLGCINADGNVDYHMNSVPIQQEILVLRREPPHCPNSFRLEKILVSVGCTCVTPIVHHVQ
SMILES,IC50 [1],IC50 [2]
"CC(F)(F)Cn1ncnc1C(=O)N[C@H](c1cn2ncc([C@H](NC(=O)CCC(F)(F)F)C3CC3)cc2n1)C1CCC(F)(F)CC1 [Example 477, N—((S)-(7-((R)-Cyclopropyl(4,4,4-trifluorobutanamido)methyl)imidazo[1,2-b]pyridazin-2-yl)(4,4-difluorocyclohexyl)methyl)-1-(2,2-difluoropropyl)-1H-1,2,4-triazole-5-carboxamide]",290 nM,1400 nM
"C[C@@H](n1ncnc1C(=O)N[C@H](c1cn2ncc([C@H](NC(=O)CCC(F)(F)F)C3CC3)cc2n1)C1CCC(F)(F)CC1)C(F)(F)F [Example 478, N—((S)-(7-((R)-Cyclopropyl(4,4,4-trifluorobutanamido)methyl)imidazo[1,2-b]pyridazin-2-yl)(4,4-difluorocyclohexyl)methyl)-1-((R)-1,1,1-trifluoropropan-2-yl)-1H-1,2,4-triazole-5-carboxamide]",450 nM,850 nM
"CC(C(F)F)n1ncnc1C(=O)N[C@H](c1cn2ncc([C@H](NC(=O)CCC(F)(F)F)C3CC3)cc2n1)C1CCC(F)(F)CC1 (stereo partly drawn) [Example 479, N—((S)-(7-((R)-Cyclopropyl(4,4,4-trifluorobutanamido)methyl)imidazo[1,2-b]pyridazin-2-yl)(4,4-difluorocyclohexyl)methyl)-1-(1,1-difluoropropan-2-yl)-1H-1,2,4-triazole-5-carboxamide]",190 nM,430 nM
"CC(C)c1scnc1C(=O)N[C@H](c1cn2ncc([C@H](NC(=O)CCC(F)(F)F)C3CC3)cc2n1)C1CCC(F)(F)CC1 [Example 480, N—((S)-(7-((R)-Cyclopropyl(4,4,4-trifluorobutanamido)methyl)imidazo[1,2-b]pyridazin-2-yl)(4,4-difluorocyclohexyl)methyl)-5-isopropylthiazole-4-carboxamide]",140 nM,470 nM
"CC(C)n1ncnc1C(=O)N[C@H](c1cn2ncc([C@H](NC(=O)CCC(F)(F)F)C3CC3)cc2n1)C1CCC(F)(F)CC1 [Example 483, N—[(S)-[7-[(R)-Cyclopropyl-(4,4,4-trifluorobutanamido)methyl]imidazo[1,2-b]pyridazin-2-yl]-(4,4-difluorocyclohexyl)methyl]-2-isopropyl-1,2,4-triazole-3-carboxamide]",75 nM,380 nM
"CC(C)n1nnc(C(=O)N[C@H](c2cn3ncc([C@H](NC(=O)CCC(F)(F)F)C4CC4)cc3n2)C2CCC(F)(F)CC2)n1 [Example 484, N—[(S)-[7-[(R)-Cyclopropyl-(4,4,4-trifluorobutanamido)methyl]imidazo[1,2-b]pyridazin-2-yl]-(4,4-difluorocyclohexyl)methyl]-2-isopropyl-tetrazole-5-carboxamide]",550 nM,4600 nM
"O=C(CCC(F)(F)F)N[C@@H](c1cnn2cc([C@@H](NC(=O)c3cnn(CCN4CC(F)(F)C4)n3)C3CCC(F)(F)CC3)nc2c1)C1CC1 [Example 485, N—[(S)-[7-[(R)-Cyclopropyl-(4,4,4-trifluorobutanamido)methyl]imidazo[1,2-b]pyridazin-2-yl]-(4,4-difluorocyclohexyl)methyl]-2-[2-(3,3-difluoroazetidin-1-yl)ethyl]triazole-4-carboxamide]",920 nM,310 nM
"O=C(CCC(F)(F)F)N[C@@H](c1cnn2cc([C@@H](NC(=O)c3cnn(CCNCC(F)(F)CCl)n3)C3CCC(F)(F)CC3)nc2c1)C1CC1 [Example 486, 2-[2-[(3-Chloro-2,2-difluoro-propyl)amino]ethyl]-N—[(S)-[7-[(R)-cyclopropyl-(4,4,4-trifluorobutanamido)methyl]imidazo[1,2-b]pyridazin-2-yl]-(4,4-difluorocyclohexyl)methyl]triazole-4-carboxamide]",300 nM,1100 nM
"N#CC1([C@@H](NC(=O)CC2CC(F)(F)C2)c2cnn3cc([C@@H](NC(=O)c4nonc4C4CC4)C4CCC(F)(F)CC4)nc3c2)CCC1 [Example 487, N—((S)-(7-((S)-(1-Cyanocyclobutyl)(2-(3,3-difluorocyclobutyl)acetamido)methyl)imidazo[1,2-b]pyridazin-2-yl)(4,4-difluorocyclohexyl)methyl)-4-cyclopropyl-1,2,5-oxadiazole-3-carboxamide]",45 nM,6 nM
"[2H]C([2H])([2H])n1nccc1C(=O)N[C@H](c1cn2ncc([C@H](NC(=O)CCC(F)(F)F)C3CC3)cc2n1)C1CCC(F)(F)CC1 [Example 488, N—((S)-(7-((R)-Cyclopropyl(4,4,4-trifluorobutanamido)methyl)imidazo[1,2-b]pyridazin-2-yl)(4,4-difluorocyclohexyl)methyl)-1-(methyl-d3)-1H-pyrazole-5-carboxamide]",95 nM,220 nM
"[2H]C([2H])([2H])n1nccc1C(=O)N[C@H](c1cn2ncc([C@H](NC(=O)CC3CC(F)(F)C3)C3CC3)cc2n1)C1CCC(F)(F)CC1 [Example 489, N—((S)-(7-((R)-Cyclopropyl(2-(3,3-difluorocyclobutyl)acetamido)methyl)imidazo[1,2-b]pyridazin-2-yl)(4,4-difluorocyclohexyl)methyl)-1-(methyl-d3)-1H-pyrazole-5-carboxamide]",54 nM,140 nM
"CC(C)(OC[C@H](NC(=O)c1nonc1C1CC1)c1cn2ncc([C@H](NC(=O)CC3CC(F)(F)C3)C3CCOCC3)cc2n1)C(F)(F)F [Example 540, 4-Cyclopropyl-N—((R)-1-(7-((R)-(2-(3,3-difluorocyclobutyl)acetamido)(tetrahydro-2H-pyran-4-yl)methyl)imidazo[1,2-b]pyridazin-2-yl)-2-((1,1,1-trifluoro-2-methylpropan-2-yl)oxy)ethyl)-1,2,5-oxadiazole-3-carboxamide]",14 nM,9.6 nM
"CC(C)n1nccc1C(=O)N[C@@H](COC(C)(C)C(F)(F)F)c1cn2ncc([C@H](NC(=O)CC3CC(F)(F)C3)C3CCOCC3)cc2n1 [Example 541, N—((R)-1-(7-((R)-(2-(3,3-Difluorocyclobutyl)acetamido)(tetrahydro-2H-pyran-4-yl)methyl)imidazo[1,2-b]pyridazin-2-yl)-2-((1,1,1-trifluoro-2-methylpropan-2-yl)oxy)ethyl)-1-isopropyl-1H-pyrazole-5-carboxamide]",130 nM,29 nM
"CC(C)(C[C@H](NC(=O)c1nonc1C1CC1)c1cn2ncc([C@H](NC(=O)CC3CC(F)(F)C3)C3CC3)cc2n1)C(F)(F)F [Example 542, 4-Cyclopropyl-N—((S)-1-(7-((R)-cyclopropyl(2-(3,3-difluorocyclobutyl)acetamido)methyl)imidazo[1,2-b]pyridazin-2-yl)-4,4,4-trifluoro-3,3-dimethylbutyl)-1,2,5-oxadiazole-3-carboxamide]",52 nM,46 nM
"CC(C)n1nccc1C(=O)N[C@@H](CC(C)(C)C(F)(F)F)c1cn2ncc([C@H](NC(=O)CC3CC(F)(F)C3)C3CC3)cc2n1 [Example 543, N—((S)-1-(7-((R)-Cyclopropyl(2-(3,3-difluorocyclobutyl)acetamido)methyl)imidazo[1,2-b]pyridazin-2-yl)-4,4,4-trifluoro-3,3-dimethylbutyl)-1-isopropyl-1H-pyrazole-5-carboxamide]",180 nM,72 nM
